Results on eight compounds are retold here after US7056940B2, “Insecticidal 3-(2,6-disubstituted phenyl)-5-[5-arylthien-2-yl]-1,2,4-triazoles” (Dow AgroSciences LLC, priority 2001, dated 2006).

What all share (type): in vivo
Test [1] has as its system Cabbage Looper (Trichoplusia ni). Description: Insecticidal test for cabbage looper, treated cabbage leaf disc. As to conditions: cabbage leaf-dip, 2nd instar larvae, 5 days.
Test [2] relates to Sweetpotato Whitefly (Bemisia tabacia). Description: Insecticidal test for sweetpotato whitefly, spray on cotton plants. On the set-up: key: A: 90–100; B: 80–89; C: 70–79; D: 60–69; E: 50–59; F: less than 50; G: Inactive. As to conditions: 200 ppm spray, 13 days, large nymphs. Summed up: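 Five-week cotton plants trimmed to two leaves carried 2 days of whitefly oviposition, then adults were removed. Leaves were sprayed top and bottom with 200 ppm compound in water with 0.05% Tween 20 (acetone:ethanol co-solvent), four replicates. After 13 days at 28° C/60% RH, 3rd–4th instar nymphs were counted; percent control versus solvent-only sprayed plants.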

The subject of test [3] is Cotton Aphid (Aphis gossypii). Description: Insecticidal test for cotton aphid, spray on infested squash cotyledons. As to conditions: 50 ppm spray, 3 days. The gist of the method:
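Squash cotyledons were infested with all aphid life stages 16–20 h beforehand, then sprayed on both sides to runoff with 50 ppm compound (acetone:ethanol, 0.05% Tween 20). After 3 days at 26 °C and 40% RH, aphids were counted under a microscope, and percent control is population reduction versus untreated.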

Test [4] deals with Tobacco Budworm (Heliothis virescens). As to the kind of experiment: Insecticidal test for tobacco budworm, treated cotton cotyledon leaf disc. On the set-up: key: A: 90–100; B: 80–89; C: 70–79; D: 60–69; E: 50–59; F: less than 50; G: Inactive. As to conditions: cotton cotyledon leaf-dip, 2nd instar larvae, 5 days.
The test system of test [5] is Two-spotted Spider Mite (Tetranychus urticae). Description: Insecticidal test for two-spotted spider mite, ovicide method. On the set-up: key: A: 90–100; B: 80–89; C: 70–79; D: 60–69; E: 50–59; F: less than 50; G: Inactive. As to conditions: cotton leaf discs, 6 days. The gist of the method:
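Cotton leaf discs (eight, 2.2 cm each) received ten adult female two-spotted spider mites, which laid eggs for 24 hours before being taken off. The discs were then set on an agar substrate and kept at 24° C. and 90% RH for 6 days to assess ovicidal control.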

Test [6] has as its system Beet Armyworm (Spodoptera exigua). Description: Insecticidal test for beet armyworm, treated lepidopteran diet. As to conditions: on diet surface, second-instar larvae, 5 days. Set-up: key: A: 90–100; B: 80–89; C: 70–79; D: 60–69; E: 50–59; F: less than 50; G: Inactive. The gist of the method:
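Test compound formulated at 400 ppm in 2:1 acetone:tap water; 250 μL applied onto surface of modified Shorey lepidopteran diet, five cups per compound (one cup = one replicate). After solvent air-dried, one second-instar larva placed on treated diet per cup.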

As for `Cc1c(-c2nc(-c3c(F)cccc3Cl)nn2C)csc1-c1cccc(OC(F)(F)F)c1`, the “CL: activity at 400 ppm against cabbage looper (% control rating)” value (“CL: activity at 400 ppm … (% control rating)” for short) in test [1] was “A (90–100)”. For the same compound, the “WF: activity at 200 ppm against whitefly (% control rating)” value (“WF: activity … (% control rating)” for short) in test [2] was “B (80–89)”. In addition, the “CA: activity at 50 ppm against cotton aphid (% control rating)” value (shortened to “CA: activity at 50 ppm … (% control rating)”) in test [3] was “A (90–100)”. Also, the “TBW: activity at 400 ppm against tobacco budworm (% control rating)” value (shortened to “TBW: activity at 400 ppm … (% control rating)”) in test [4] is on record as “G”. The “SM: activity against two-spotted spider mite (% control rating)” value (“SM: activity … (% control rating)” below) in test [5] is reported as “F (less than 50)”. The “BAW: activity at 400 ppm against beet armyworm (% control rating)” value (from here on “BAW: activity at 400 ppm … (% control rating)”) in test [6] is recorded as “G”.

`Cc1c(-c2nc(-c3c(F)cccc3Cl)nn2C)csc1-c1ccc(Oc2ccccc2)cc1`: in test [1], the “CL: activity at 400 ppm … (% control rating)” value is reported as “A (90–100)”. Besides, the “WF: activity … (% control rating)” value in test [2] was “A (90–100)”. Moreover, the “CA: activity at 50 ppm … (% control rating)” value in test [3] is “A (90–100)”. Besides, the “TBW: activity at 400 ppm … (% control rating)” value in test [4] is listed as “F (less than 50)”. Further, in test [5], the “SM: activity … (% control rating)” value is reported as “A (90–100)”. In addition, the “BAW: activity at 400 ppm … (% control rating)” value in test [6] is “A (90–100)”.

In the case of `CCCOc1ccc(-c2scc(-c3nc(-c4c(F)cccc4Cl)nn3C)c2C)cc1`, in test [1], the “CL: activity at 400 ppm … (% control rating)” value was “A (90–100)”. Moreover, in test [2], the “WF: activity … (% control rating)” value is listed as “A (90–100)”. For the same compound, in test [3], the “CA: activity at 50 ppm … (% control rating)” value is “A (90–100)”. Also, the “TBW: activity at 400 ppm … (% control rating)” value in test [4] is “G”. The “SM: activity … (% control rating)” value in test [5] is “G”. Besides, the “BAW: activity at 400 ppm … (% control rating)” value in test [6] is listed as “A (90–100)”.

Consider `Cc1c(-c2nc(-c3c(F)cccc3Cl)nn2C)csc1-c1ccc(OCC(F)(F)F)cc1`, for which the “CL: activity at 400 ppm … (% control rating)” value in test [1] is “A (90–100)”. Further, in test [2], the “WF: activity … (% control rating)” value is given as “A (90–100)”. Besides, the “CA: activity at 50 ppm … (% control rating)” value in test [3] is given as “B (80–89)”. In addition, the “TBW: activity at 400 ppm … (% control rating)” value in test [4] is recorded as “A (90–100)”. The “SM: activity … (% control rating)” value in test [5] was “A (90–100)”. For the same compound, the “BAW: activity at 400 ppm … (% control rating)” value in test [6] is listed as “A (90–100)”.

As for `Cc1c(-c2nc(-c3c(F)cccc3Cl)nn2C)csc1-c1ccc(OC(F)(F)C(F)Cl)cc1` (stereo not drawn), in test [1], the “CL: activity at 400 ppm … (% control rating)” value was “A (90–100)”. Moreover, in test [2], the “WF: activity … (% control rating)” value is “A (90–100)”. The “CA: activity at 50 ppm … (% control rating)” value in test [3] was “B (80–89)”. Also, the “TBW: activity at 400 ppm … (% control rating)” value in test [4] is “A (90–100)”. Also, the “SM: activity … (% control rating)” value in test [5] was “A (90–100)”. In addition, the “BAW: activity at 400 ppm … (% control rating)” value in test [6] is “A (90–100)”.

As to `Cc1c(-c2nc(-c3c(F)cccc3Cl)nn2C)csc1-c1ccc(OC2CCCCO2)cc1` (stereo not drawn), in test [1], the “CL: activity at 400 ppm … (% control rating)” value is given as “F (less than 50)”. In addition, the “WF: activity … (% control rating)” value in test [2] is given as “F (less than 50)”. For the same compound, in test [3], the “CA: activity at 50 ppm … (% control rating)” value is reported as “B (80–89)”. Further, the “TBW: activity at 400 ppm … (% control rating)” value in test [4] is “F (less than 50)”. The “SM: activity … (% control rating)” value in test [5] is given as “F (less than 50)”. The “BAW: activity at 400 ppm … (% control rating)” value in test [6] is “A (90–100)”.

For `Cc1c(-c2nc(-c3c(F)cccc3Cl)nn2C)csc1-c1ccc(OC(F)(F)C(F)F)cc1`, the “CL: activity at 400 ppm … (% control rating)” value in test [1] is listed as “A (90–100)”. The “WF: activity … (% control rating)” value in test [2] was “A (90–100)”. Also, the “CA: activity at 50 ppm … (% control rating)” value in test [3] is reported as “C (70–79)”. For the same compound, in test [4], the “TBW: activity at 400 ppm … (% control rating)” value is on record as “A (90–100)”. Further, in test [5], the “SM: activity … (% control rating)” value is listed as “E (50–59)”. Moreover, the “BAW: activity at 400 ppm … (% control rating)” value in test [6] is recorded as “A (90–100)”.

As for `Cc1sc(-c2ccc(OC(F)(F)C(F)C(F)(F)F)cc2)c(C)c1-c1nc(-c2c(F)cccc2Cl)nn1C` (stereo not drawn), the “CL: activity at 400 ppm … (% control rating)” value in test [1] is reported as “A (90–100)”. Besides, in test [2], the “WF: activity … (% control rating)” value is “G”. Besides, in test [3], the “CA: activity at 50 ppm … (% control rating)” value is “E (50–59)”. In addition, the “TBW: activity at 400 ppm … (% control rating)” value in test [4] is reported as “A (90–100)”. For the same compound, the “SM: activity … (% control rating)” value in test [5] is “G”. Moreover, the “BAW: activity at 400 ppm … (% control rating)” value in test [6] is reported as “A (90–100)”.
